Results: patent US11970463B2, “Compounds and their use” (ASTRAZENECA AB, priority 2021, dated 2024)
Values after ≈ are worked out from the molar mass of the structure shown. Like-named read-outs stand apart in the source and are kept apart here.

Experiments:
[1] = Solubility (Test F), McIlvaine buffer pH 6.5; format: physicochemical; settings: McIlvaine buffer pH 6.5, 25° C., 24 to 72 h, theoretical maximum 200 μM; for solubility: disodium hydrogenphosphate-citric acid (McIlvaine) buffer, 25 °C, pH 6.5, aqueous buffer, thermodynamic from solid
Human NLRP3 = Human NLRP3 (Homo sapiens (Human), UniProt Q96P20)
Chain of Human NLRP3 (Q96P20 whole entry): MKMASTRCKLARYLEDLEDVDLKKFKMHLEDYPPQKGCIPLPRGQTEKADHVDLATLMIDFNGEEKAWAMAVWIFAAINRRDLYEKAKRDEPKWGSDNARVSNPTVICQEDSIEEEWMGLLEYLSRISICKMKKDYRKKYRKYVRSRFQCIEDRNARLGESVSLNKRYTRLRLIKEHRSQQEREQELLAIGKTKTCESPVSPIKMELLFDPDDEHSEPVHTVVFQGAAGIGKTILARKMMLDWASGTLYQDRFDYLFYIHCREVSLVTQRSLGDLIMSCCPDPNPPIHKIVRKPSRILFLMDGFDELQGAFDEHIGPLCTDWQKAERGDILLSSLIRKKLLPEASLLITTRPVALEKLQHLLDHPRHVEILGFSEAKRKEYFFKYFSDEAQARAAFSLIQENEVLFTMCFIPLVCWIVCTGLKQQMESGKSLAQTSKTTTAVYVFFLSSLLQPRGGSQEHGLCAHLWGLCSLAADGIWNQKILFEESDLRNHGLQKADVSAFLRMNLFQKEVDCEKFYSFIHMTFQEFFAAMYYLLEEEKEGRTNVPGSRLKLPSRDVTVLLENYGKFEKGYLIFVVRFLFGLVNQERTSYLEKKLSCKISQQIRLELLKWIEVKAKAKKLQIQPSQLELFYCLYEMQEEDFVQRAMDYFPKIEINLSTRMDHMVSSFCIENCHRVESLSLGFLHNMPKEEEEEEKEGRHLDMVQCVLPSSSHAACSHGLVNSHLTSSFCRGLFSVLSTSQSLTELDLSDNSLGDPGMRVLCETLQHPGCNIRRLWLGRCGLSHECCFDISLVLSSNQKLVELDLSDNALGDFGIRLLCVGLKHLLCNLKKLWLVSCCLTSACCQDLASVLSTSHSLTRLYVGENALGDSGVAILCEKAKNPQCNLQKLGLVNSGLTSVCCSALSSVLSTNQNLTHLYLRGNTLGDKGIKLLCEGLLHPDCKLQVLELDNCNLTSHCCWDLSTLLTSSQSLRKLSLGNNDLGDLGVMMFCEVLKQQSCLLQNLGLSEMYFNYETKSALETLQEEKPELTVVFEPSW

[2] = Test C IC50, IL-1β release, THP-1 cells, LPS 2 μg/mL 24 h, BzATP 1 mM

Compound	solubility [1] [µg/mL]	IC50 (Human NLRP3; [2]) [nM]	IC50 (Human NLRP3) [nM]	Test F Solubility [1] [µg/mL]
Oc1cccc(F)c1-c1nnc(N[C@@H]2CCC[C@H](O)C2)c2cnccc12 [Example 47, 3-fluoro-2-[4-[[(1R,3S)-3-hydroxycyclohexyl]amino]pyrido[3,4-d]pyridazin-1-yl]phenol]	> 70.9	68		
CS(=O)(=O)c1ccc(-c2nnc(N[C@@H]3CC[C@@H](O)C3)c3ccccc23)c(O)c1 [Example 18, 2-[4-[[(1R,3R)-3-hydroxycyclopentyl]amino]phthalazin-1-yl]-5-methylsulfonyl-phenol]	> 79.9	738		
Cc1ccc(O)c(-c2nnc(NC[C@H](O)CO)c3ccccc23)c1 [Example 13, (2S)-3-[[4-(2-hydroxy-5-methyl-phenyl)phthalazin-1-yl]amino]propane-1,2-diol]	> 65.1	> 10000		
OC[C@@H](O)CNc1nnc(-c2c(O)cccc2F)c2ccccc12 [Example 4, (2S)-3-[[4-(2-fluoro-6-hydroxy-phenyl)phthalazin-1-yl]amino]propane-1,2-diol]	23.2 (≈ 70.4 µM)	> 1000		
C[C@]1(O)C[C@@H](Nc2nnc(-c3ccc(OC(F)(F)F)cc3O)c3ccncc23)C1 [Example 63, 2-(4-(((1s,3s)-3-hydroxy-3-methylcyclobutyl)amino)pyrido[3,4-d]pyridazin-1-yl)-5-(trifluoromethoxy)phenol]	0.8 (≈ 1.97 µM)		8	
Oc1cccc(C(F)(F)F)c1-c1nnc(N[C@@H]2CCC[C@H](O)C2)c2cnccc12 (racemic) [Example 50, 2-[4-[[(1R,3S)-3-hydroxycyclohexyl]amino]pyrido[3,4-d]pyridazin-1-yl]-3-(trifluoromethyl)phenol]				>80.9
OC[C@@H](O)CNc1nnc(-c2cc(F)c(F)cc2O)c2ccccc12 [Example 3, (2S)-3-[[4-(4,5-difluoro-2-hydroxy-phenyl)phthalazin-1-yl]amino]propane-1,2-diol]	68.6 (≈ 198 µM)	474		
Oc1cccc(C(F)(F)F)c1-c1nnc(N[C@@H]2CCC[C@H](O)C2)c2cnccc12 (single isomer, unassigned) [Example 49]	> 80.9	405		
CC(C)(O)CNc1nnc(-c2ccc(OC(F)(F)F)cc2O)c2ccncc12 [Example 72, 2-[4-[(2-hydroxy-2-methyl-propyl)amino]pyrido[3,4-d]pyridazin-1-yl]-5-(trifluoromethoxy)phenol]	5.8 (≈ 14.7 µM)	22		
OC[C@@H](O)CNc1nnc(-c2ccc(C(F)(F)F)cc2O)c2ccncc12 [Example 88, (2S)-3-[[1-[2-hydroxy-4-(trifluoromethyl)phenyl]pyrido[3,4-d]pyridazin-4-yl]amino]propane-1,2-diol]	> 76.1			
C[C@]1(O)C[C@@H](Nc2nnc(-c3cc(F)c(F)cc3O)c3ccncc23)C1 [Example 66, 4,5-difluoro-2-(4-(((1s,3s)-3-hydroxy-3-methylcyclobutyl)amino)pyrido[3,4-d]pyridazin-1-yl)phenol]	3.6 (≈ 10 µM)		570	
OC[C@H](O)CNc1nnc(-c2ccc(C(F)(F)F)cc2O)c2ccccc12 [Example 12, (2R)-3-[[4-[2-hydroxy-4-(trifluoromethyl)phenyl]phthalazin-1-yl]amino]propane-1,2-diol]	36.4 (≈ 96 µM)			
C[C@]1(O)C[C@@H](Nc2nnc(-c3c(O)cccc3F)c3cccnc23)C1 [Example 90, 3-fluoro-2-(8-(((1s,3s)-3-hydroxy-3-methylcyclobutyl)amino)pyrido[2,3-d]pyridazin-5-yl)phenol]	> 68.1		551	
CCc1ccc(-c2nnc(N[C@@H]3CCC[C@H](O)C3)c3cnccc23)c(O)c1 [Example 51, 5-ethyl-2-[4-[[(1R,3S)-3-hydroxycyclohexyl]amino]pyrido[3,4-d]pyridazin-1-yl]phenol]	> 72.9	4		
OC[C@@H](O)CNc1nnc(-c2ccc(C(F)(F)F)cc2O)c2ccccc12 [Example 1, (2S)-3-[[4-[2-hydroxy-4-(trifluoromethyl)phenyl]phthalazin-1-yl]amino]propane-1,2-diol]	50 (≈ 132 µM)			
Oc1cc(C(F)(F)F)ccc1-c1nnc(N[C@@H]2CCC[C@H](O)C2)c2ncccc12 [Example 89, 2-[8-[[(1R,3S)-3-hydroxycyclohexyl]amino]pyrido[2,3-d]pyridazin-5-yl]-5-(trifluoromethyl)phenol]	22.1 (≈ 54.6 µM)			
OC[C@@H](O)CNc1nnc(-c2ccc(Cl)c(F)c2O)c2ccccc12 [Example 2, (2S)-3-[[4-(4-chloro-3-fluoro-2-hydroxy-phenyl)phthalazin-1-yl]amino]propane-1,2-diol]	24.6 (≈ 67.6 µM)	165		
OC[C@@H](O)CNc1nnc(-c2c(O)cccc2Cl)c2ccccc12 [Example 10, (2S)-3-[[4-(2-chloro-6-hydroxy-phenyl)phthalazin-1-yl]amino]propane-1,2-diol]	62.9 (≈ 182 µM)	434		
C[C@]1(O)C[C@@H](Nc2nnc(-c3c(O)cccc3F)c3ccccc23)C1 [Example 36, 3-fluoro-2-(4-(((1s,3s)-3-hydroxy-3-methylcyclobutyl)amino)phthalazin-1-yl)phenol]	43 (≈ 127 µM)		976	
CC(C)(O)CNc1nnc(-c2ccc(Cl)cc2O)c2ccncc12 [Example 71, 5-chloro-2-[4-[(2-hydroxy-2-methyl-propyl)amino]pyrido[3,4-d]pyridazin-1-yl]phenol]	21.9 (≈ 63.5 µM)	14		
Oc1cc(C(F)(F)F)ccc1-c1nnc(N[C@@H]2CCC[C@H](O)C2)c2ccncc12 [Example 43, 2-[1-[[(1R,3S)-3-hydroxycyclohexyl]amino]pyrido[3,4-d]pyridazin-4-yl]-5-(trifluoromethyl)phenol]	37.3 (≈ 92.2 µM)			
Oc1cccc(C(F)(F)F)c1-c1nnc(N[C@@H]2CCC[C@H](O)C2)c2cnccc12 (single isomer, unassigned) [Example 50]		47		
OC[C@@H](O)CNc1nnc(-c2c(O)cc(F)cc2F)c2ccccc12 [Example 8, (2S)-3-[[4-(2,4-difluoro-6-hydroxy-phenyl)phthalazin-1-yl]amino]propane-1,2-diol]	11.8 (≈ 34 µM)	159		
Oc1cc(C(F)(F)F)ccc1-c1nnc(N[C@H]2CC[C@@H](O)C2)c2ccccc12 (single isomer, unassigned) [Example 34]	9.3 (≈ 23.9 µM)	18		
C[C@]1(O)C[C@@H](Nc2nnc(-c3c(O)cccc3F)c3ccncc23)C1 [Example 64, 3-fluoro-2-(4-(((1s,3s)-3-hydroxy-3-methylcyclobutyl)amino)pyrido[3,4-d]pyridazin-1-yl)phenol]	> 68.1		111	
Cc1ccc2c(-c3ccc(C(F)(F)F)cc3O)nnc(N[C@@H]3CCC[C@H](O)C3)c2n1 [Example 91, 2-[8-[[(1R,3S)-3-hydroxycyclohexyl]amino]-2-methyl-pyrido[2,3-d]pyridazin-5-yl]-5-(trifluoromethyl)phenol]	0.5 (≈ 1.19 µM)	10		
Oc1cc(C(F)(F)F)ccc1-c1nnc(N[C@H]2CCC[C@H](O)C2)c2ccccc12 (single isomer, unassigned) [Example 29]				16.1
